Measurements taken from patent US12662479B2 (Foghorn Therapeutics Inc., priority 2020, dated 2026).

Legend:
HiBit-BRM fusion protein = target: T1, HiBit-BRM fusion protein (Homo sapiens, UniProt P51531); test: HiBiT-BRM cell-based degradation assay (Nano-Glo HiBiT Lytic Detection, 24 h); conditions: HeLa cells expressing HiBiT-BRM; for DC50: read-out: BRM HiBit Degradation IC50; for BRM HiBit Degradation Maximum measured: top dose 30 μM
T1 construct: expressed in transfected cells
Procedure, shortened: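 Residual HiBiT-BRM in a stable HeLa line was measured by Nano-Glo lytic luminescence after 24 h compound exposure (top final dose 30 μM, 3-fold, 10 points, duplicate). Values are % degradation, scaled between DMSO-treated cells and cells given 2 μM of a known BRM/BRG1 degrader.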

[1] = target: T2, HiBit-BRG1 fusion protein (Homo sapiens, UniProt P51532); test: HiBiT-BRG1 cell-based degradation assay (Nano-Glo HiBiT Lytic Detection, 24 h); conditions: HeLa cells expressing HiBit-BRG1 and LgBit; for DC50: read-out: BRG1 HiBit Degradation IC50; for Dmax: HeLa, top dose 30 μM, read-out: BRG1 HiBit Degradation Maximum measured
T2 construct: expressed in transfected cells
T2 sequence (P51532 whole entry, the tested form may be a part): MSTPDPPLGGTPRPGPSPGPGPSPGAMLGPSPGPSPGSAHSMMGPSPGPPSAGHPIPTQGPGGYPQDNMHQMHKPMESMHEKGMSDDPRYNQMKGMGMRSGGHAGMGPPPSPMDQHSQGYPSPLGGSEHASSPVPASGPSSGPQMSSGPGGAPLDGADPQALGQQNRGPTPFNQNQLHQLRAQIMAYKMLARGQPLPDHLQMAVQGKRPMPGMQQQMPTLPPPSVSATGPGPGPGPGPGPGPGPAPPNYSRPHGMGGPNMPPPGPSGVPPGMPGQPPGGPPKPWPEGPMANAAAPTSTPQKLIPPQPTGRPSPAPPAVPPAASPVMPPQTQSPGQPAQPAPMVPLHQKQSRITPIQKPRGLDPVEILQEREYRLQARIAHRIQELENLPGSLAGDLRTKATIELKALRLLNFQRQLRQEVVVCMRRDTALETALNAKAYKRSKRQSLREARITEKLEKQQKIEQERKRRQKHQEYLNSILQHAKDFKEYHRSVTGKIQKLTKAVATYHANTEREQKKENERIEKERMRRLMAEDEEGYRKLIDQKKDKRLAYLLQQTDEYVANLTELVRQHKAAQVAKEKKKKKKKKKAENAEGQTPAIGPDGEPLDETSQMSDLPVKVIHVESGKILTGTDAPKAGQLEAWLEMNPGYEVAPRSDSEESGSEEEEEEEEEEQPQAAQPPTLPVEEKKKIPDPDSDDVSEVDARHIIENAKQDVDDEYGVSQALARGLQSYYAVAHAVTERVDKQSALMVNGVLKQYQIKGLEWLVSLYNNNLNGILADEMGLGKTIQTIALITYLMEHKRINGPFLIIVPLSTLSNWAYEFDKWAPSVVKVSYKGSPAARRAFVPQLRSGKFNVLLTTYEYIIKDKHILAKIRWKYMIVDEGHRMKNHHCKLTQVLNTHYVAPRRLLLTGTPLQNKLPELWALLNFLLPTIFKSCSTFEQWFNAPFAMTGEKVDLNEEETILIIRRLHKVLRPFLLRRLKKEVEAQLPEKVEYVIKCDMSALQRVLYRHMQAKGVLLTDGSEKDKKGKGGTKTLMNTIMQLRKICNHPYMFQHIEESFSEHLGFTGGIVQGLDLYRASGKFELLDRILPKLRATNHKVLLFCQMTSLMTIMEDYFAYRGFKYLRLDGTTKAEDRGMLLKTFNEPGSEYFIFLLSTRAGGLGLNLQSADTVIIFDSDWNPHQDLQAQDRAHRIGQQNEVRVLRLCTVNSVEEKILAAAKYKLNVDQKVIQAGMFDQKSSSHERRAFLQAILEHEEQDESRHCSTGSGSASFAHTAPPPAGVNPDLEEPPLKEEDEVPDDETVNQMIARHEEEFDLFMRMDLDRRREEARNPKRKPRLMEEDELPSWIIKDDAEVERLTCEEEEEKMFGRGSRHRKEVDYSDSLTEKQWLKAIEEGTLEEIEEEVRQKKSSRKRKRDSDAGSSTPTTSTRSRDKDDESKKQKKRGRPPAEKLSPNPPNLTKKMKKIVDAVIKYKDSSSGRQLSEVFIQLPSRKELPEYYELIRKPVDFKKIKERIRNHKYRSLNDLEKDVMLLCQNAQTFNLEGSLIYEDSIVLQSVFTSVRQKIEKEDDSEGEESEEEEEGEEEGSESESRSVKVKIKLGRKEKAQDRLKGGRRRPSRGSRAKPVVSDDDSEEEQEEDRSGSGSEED
Procedure, shortened: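 Degradation is scaled from DMSO-treated cells (0%) to cells given 2 μM of a known BRM/BRG1 degrader (100%). HeLa cells stably carrying HiBiT-BRG1 plus LgBiT (5000/well) were lysed with Nano-Glo HiBiT detection reagent, shaken 10 min at RT, and luminescence read.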

T1 sequence (P51531 whole entry, the tested form may be a part): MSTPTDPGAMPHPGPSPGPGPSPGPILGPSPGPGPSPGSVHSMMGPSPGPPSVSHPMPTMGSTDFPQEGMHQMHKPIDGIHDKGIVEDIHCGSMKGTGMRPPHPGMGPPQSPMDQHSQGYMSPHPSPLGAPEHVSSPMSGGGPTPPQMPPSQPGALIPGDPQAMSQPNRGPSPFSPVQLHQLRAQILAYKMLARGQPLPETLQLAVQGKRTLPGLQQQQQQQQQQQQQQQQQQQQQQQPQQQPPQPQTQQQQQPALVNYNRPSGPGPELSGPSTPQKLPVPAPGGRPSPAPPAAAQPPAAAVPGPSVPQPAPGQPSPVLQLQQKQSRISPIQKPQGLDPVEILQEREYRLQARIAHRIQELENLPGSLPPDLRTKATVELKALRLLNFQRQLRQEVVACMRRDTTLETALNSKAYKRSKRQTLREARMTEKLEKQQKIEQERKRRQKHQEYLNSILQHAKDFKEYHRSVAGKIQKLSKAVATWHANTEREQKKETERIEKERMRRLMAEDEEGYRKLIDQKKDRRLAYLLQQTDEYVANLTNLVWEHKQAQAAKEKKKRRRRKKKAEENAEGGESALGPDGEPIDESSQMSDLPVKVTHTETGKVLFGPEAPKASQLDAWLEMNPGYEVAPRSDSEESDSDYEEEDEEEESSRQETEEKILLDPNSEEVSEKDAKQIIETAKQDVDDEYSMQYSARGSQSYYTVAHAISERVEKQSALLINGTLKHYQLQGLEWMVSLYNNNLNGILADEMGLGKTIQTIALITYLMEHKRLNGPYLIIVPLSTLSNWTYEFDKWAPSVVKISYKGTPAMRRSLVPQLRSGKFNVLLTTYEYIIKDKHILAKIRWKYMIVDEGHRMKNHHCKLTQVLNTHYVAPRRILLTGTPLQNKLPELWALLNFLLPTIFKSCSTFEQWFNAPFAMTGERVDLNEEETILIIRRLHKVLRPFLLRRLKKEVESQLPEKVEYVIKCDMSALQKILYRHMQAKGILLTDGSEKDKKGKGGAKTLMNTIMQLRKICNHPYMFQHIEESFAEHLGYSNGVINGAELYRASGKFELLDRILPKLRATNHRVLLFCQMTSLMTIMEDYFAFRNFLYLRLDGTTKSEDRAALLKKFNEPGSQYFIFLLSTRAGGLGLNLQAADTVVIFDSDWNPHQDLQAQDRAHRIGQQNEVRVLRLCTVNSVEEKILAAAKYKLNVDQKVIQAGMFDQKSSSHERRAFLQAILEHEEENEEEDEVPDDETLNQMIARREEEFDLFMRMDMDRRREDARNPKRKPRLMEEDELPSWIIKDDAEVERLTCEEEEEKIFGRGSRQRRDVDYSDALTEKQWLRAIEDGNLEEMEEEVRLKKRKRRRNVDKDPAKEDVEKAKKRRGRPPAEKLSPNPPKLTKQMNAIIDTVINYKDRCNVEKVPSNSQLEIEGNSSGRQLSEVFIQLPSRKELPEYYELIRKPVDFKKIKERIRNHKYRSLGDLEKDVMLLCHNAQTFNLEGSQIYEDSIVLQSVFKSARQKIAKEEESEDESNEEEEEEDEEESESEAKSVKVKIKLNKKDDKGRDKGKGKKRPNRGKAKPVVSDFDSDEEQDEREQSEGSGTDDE

DC50 (HiBit-BRM fusion protein) [µM] | BRM HiBit Degradation Maximum measured (HiBit-BRM fusion protein) | DC50 [1] [µM] | Dmax [1] [%] | Compound
> 10 | C (‘C’ = Maximum degradation <50%) | > 10 | < 50 | CS(=O)(=O)n1ccc(C(=O)N[C@@H](CCCCNC(=O)CCCCOc2cccc3c2C(=O)N(C2CCC(=O)NC2=O)C3=O)C(=O)Nc2nc(-c3ccccc3)cs2)c1 (stereo partly drawn) [Compound 295, (2S)-6-(5-[[2-(2,6-dioxopiperidin-3-yl)-1,3-dioxoisoindol-4-yl]oxy]pentanemido)-2-[(1-methanesulfonylpyrrol-3-yl)formamido]-N-(4-phenyl-1,3-thiazol-2-yl)hexanamide]
> 10 | C (‘C’ = Maximum degradation <50%) | > 10 | < 50 | CS(=O)(=O)n1ccc(C(=O)N[C@@H](CCCCNC(=O)CCCCCCCCCCNc2cccc3c2C(=O)N(C2CCC(=O)NC2=O)C3=O)C(=O)Nc2nc(-c3ccccc3)cs2)c1 (stereo partly drawn) [Compound 296, 11-[[2-(2,6-dioxopiperidin-3-yl)-1,3-dioxoisoindol-4-yl]amino]-N-[(5S)-5-[(1-methanesulfonylpyrrol-3-yl)formamido]-5-[(4-phenyl-1,3-thiazol-2-yl)carbamoyl]pentyl]undecanamide]
> 10 | C (‘C’ = Maximum degradation <50%) | > 10 | < 50 | CS(=O)(=O)n1ccc(C(=O)N[C@@H](CCCCNC(=O)CCN2CCN(c3ccc4c(c3)C(=O)N(C3CCC(=O)NC3=O)C4=O)CC2)C(=O)Nc2nc(-c3ccccc3)cs2)c1 (stereo partly drawn) [Compound 297, N-((2S)-6-(3-(4-(2-(2,6-dioxopiperidin-3-yl)-1,3-dioxoisoindolin-5-yl)piperazin-1-yl)propanamido)-1-oxo-1-((4-phenylthiazol-2-yl)amino)hexan-2-yl)-1-(methylsulfonyl)-1H-pyrrole-3-carboxamide]
